For 13 compounds, GI50 and TGI results are on record in PubChem BioAssay (NCI).

Some test systems named below: 786-0 renal; BT-549 breast; EKVX NSCLC; HCT-15 colon; HOP-62 NSCLC; MCF7 breast; SF-295 CNS; SK-OV-3 ovarian; SNB-19 CNS; SR leukemia.
What all share (experiment): inhibition of tumour cell growth, NCI panel, 48 h

Structures are written as SMILES.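 The compound was tested at five concentrations on cells cultured in 96-well plates, with a 48-hour exposure period. GI50 = concentration required for 50% inhibition of growth. TGI: concentration producing complete growth inhibition.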 Where only a bound is given, the exact number is not on record here.

In the case of `OCC1OC(n2cnc3c(NCc4ccccc4O)ncnc32)C(O)C1O` (stereo not drawn), the GI50 with 786-0 renal was 0.571 µM; in the test on BT-549 breast it was 0.177 µM; with EKVX NSCLC, 1.03 µM; with HCT-15 colon, 0.432 µM; in the test on HOP-62 NSCLC, 2.33 µM; with MCF7 breast it was 2.05 µM. The GI50 is 6.48 µM in the test with SF-295 CNS, 0.627 µM with SK-OV-3 ovarian, 1.39 µM in the test with SNB-19 CNS and 0.413 µM in the test on SR leukemia. Further, the TGI with 786-0 renal was 7.7 µM; in the test with BT-549 breast, 2.29 µM; in the test on EKVX NSCLC, above 100 µM; in the test on HOP-62 NSCLC, 18.2 µM; in the test with MCF7 breast, 17.1 µM; in the test with SF-295 CNS, above 56.7 µM. Moreover, the TGI is 26.1 µM in the test with SK-OV-3 ovarian, above 100 µM in the test on SNB-19 CNS and above 29.3 µM in the test with SR leukemia.

For `Cc1cc(OCc2nn(CN3CCN(C)CC3)c(=S)n2/N=C/c2ccc(F)cc2)ccc1Cl`, the GI50 in the test on 786-0 renal was 18.7 µM; in the test on BT-549 breast, 17.6 µM; with EKVX NSCLC, 20.4 µM; in the test with HCT-15 colon, 15.2 µM; in the test on HOP-62 NSCLC, 18.7 µM; in the test with MCF7 breast, 18.4 µM. In addition, the GI50 with SF-295 CNS is 17.9 µM; in the test with SK-OV-3 ovarian, 19.7 µM; with SNB-19 CNS, 17.6 µM; in the test with SR leukemia it was 13.3 µM. Also, the TGI in the test on 786-0 renal worked out at 34.1 µM; in the test on BT-549 breast, 32.7 µM; with EKVX NSCLC it was 43 µM; in the test with HCT-15 colon it was 29.3 µM; in the test on HOP-62 NSCLC, 34.4 µM; in the test with MCF7 breast, 34.4 µM. Moreover, the TGI stood at 36.6 µM with SF-295 CNS, 44.4 µM in the test with SK-OV-3 ovarian, 33.8 µM in the test with SNB-19 CNS and 29.7 µM in the test on SR leukemia.

Take `Cc1ccc(C2C3Cc4ccccc4C3=NN2c2ccc(S(=O)(=O)NC(=O)Nc3ccccc3)cc2)cc1` (stereo not drawn): the GI50 in the test with 786-0 renal was 12.8 µM; in the test with BT-549 breast, 14.7 µM; in the test on EKVX NSCLC it was 13.7 µM; in the test on HCT-15 colon, 14.8 µM; with HOP-62 NSCLC, 19.3 µM; in the test with MCF7 breast, 17.1 µM. Besides, the GI50 in the test with SF-295 CNS was 12.8 µM; with SK-OV-3 ovarian it was 16.1 µM; in the test on SNB-19 CNS, 25.4 µM; with SR leukemia, 2.51 µM. Besides, the TGI was 36.5 µM in the test on 786-0 renal; 34.5 µM in the test with BT-549 breast; 33 µM in the test with EKVX NSCLC; 32.2 µM with HCT-15 colon; 63 µM in the test on HOP-62 NSCLC; above 100 µM in the test on MCF7 breast. Besides, the TGI in the test with SF-295 CNS is 33.6 µM; in the test on SK-OV-3 ovarian, 31.9 µM; in the test with SNB-19 CNS, above 100 µM; in the test on SR leukemia it was 16.1 µM.

In the case of `NC(=O)c1ncn2c(=O)n(CCCl)nnc12`, the GI50 was 46.4 µM in the test with 786-0 renal; 53.4 µM in the test on HOP-62 NSCLC; 68.3 µM in the test with MCF7 breast; above 68 µM in the test with SF-295 CNS; 69 µM in the test on SNB-19 CNS; 57.9 µM in the test on SR leukemia. Further, the TGI in the test with 786-0 renal is 195 µM; with BT-549 breast, 306 µM; in the test on EKVX NSCLC it was 436 µM; with HCT-15 colon, 521 µM; in the test with HOP-62 NSCLC it was 139 µM; with MCF7 breast it was 379 µM. Besides, the TGI was 239 µM in the test on SF-295 CNS, 130 µM in the test with SK-OV-3 ovarian, 995 µM in the test on SNB-19 CNS and 801 µM with SR leukemia.

Take `Nc1no[n+]([O-])c1-c1nnc2c(n1)-c1ccccc1C2=O`: the GI50 with 786-0 renal is 4.3 µM; in the test with BT-549 breast, 2.99 µM; with EKVX NSCLC it was 2.29 µM; in the test with HCT-15 colon, 1.83 µM; in the test with HOP-62 NSCLC it was 2.74 µM; in the test with MCF7 breast, 1.55 µM. Also, the GI50 was 12.5 µM in the test on SF-295 CNS, 16.2 µM in the test with SK-OV-3 ovarian, 4.88 µM in the test on SNB-19 CNS and 2.48 µM in the test on SR leukemia. Also, the TGI with 786-0 renal is 16.8 µM; in the test with BT-549 breast, 12.9 µM; in the test on EKVX NSCLC it was 5.86 µM; with HCT-15 colon, 3.91 µM; in the test on HOP-62 NSCLC it was 10 µM; in the test on MCF7 breast, 3.94 µM. Further, the TGI in the test on SF-295 CNS is 34.3 µM; with SK-OV-3 ovarian, 51.5 µM; in the test with SNB-19 CNS it was 16.7 µM.

`C=C1C(O)C2CC(C)(C)C(=O)C2=C(CC(C)C)C12CC2` (stereo not drawn): the GI50 with 786-0 renal, in the test with BT-549 breast, with EKVX NSCLC, with HCT-15 colon, with HOP-62 NSCLC and in the test on MCF7 breast was above 100 µM in each case. The GI50 was above 100 µM in the test on SF-295 CNS, above 100 µM with SK-OV-3 ovarian, above 100 µM with SNB-19 CNS and 62.4 µM in the test on SR leukemia. The TGI with 786-0 renal, in the test with BT-549 breast, in the test on EKVX NSCLC, in the test on HCT-15 colon, in the test on HOP-62 NSCLC and in the test on MCF7 breast was above 100 µM in each case. The TGI with SF-295 CNS, with SK-OV-3 ovarian, in the test with SNB-19 CNS and in the test with SR leukemia was above 100 µM throughout.

Turning to `CCC(=C(c1ccc(OCCN2CCCC2)cc1)c1ccc(OCCN2CCCC2)cc1)c1ccc(Cl)cc1`, the GI50 is 0.591 µM in the test with 786-0 renal; 0.733 µM with BT-549 breast; 0.666 µM in the test on EKVX NSCLC; 0.524 µM in the test on HCT-15 colon; 0.688 µM in the test on HOP-62 NSCLC; 0.287 µM with MCF7 breast. Further, the GI50 is 0.637 µM with SF-295 CNS, 0.583 µM with SK-OV-3 ovarian, 0.624 µM with SNB-19 CNS and 0.347 µM in the test on SR leukemia. Moreover, the TGI was 1.1 µM in the test on 786-0 renal; 1.86 µM in the test with BT-549 breast; 1.4 µM with EKVX NSCLC; 1.04 µM with HCT-15 colon; 1.58 µM with HOP-62 NSCLC; 0.822 µM in the test with MCF7 breast. Moreover, the TGI was determined as 1.23 µM in the test on SF-295 CNS, 1.14 µM in the test with SK-OV-3 ovarian, 1.19 µM with SNB-19 CNS and 1.09 µM with SR leukemia.

As for `C1=C\CCCCN2CC[C@H]3[C@H](CCCC/C=C\CCCN4C[C@@H](CCCCC/1)C[C@@H]3C4)C2`, the GI50 with 786-0 renal is 12.5 µM; in the test with BT-549 breast, 13.4 µM; with EKVX NSCLC, 11.8 µM; in the test with HCT-15 colon, 2.22 µM; in the test with HOP-62 NSCLC it was 15.7 µM; in the test with MCF7 breast it was 3.58 µM. Further, the GI50 was 5.3 µM in the test with SF-295 CNS, 13.3 µM in the test on SK-OV-3 ovarian, 16.4 µM in the test with SNB-19 CNS and 1.85 µM in the test with SR leukemia. Besides, the TGI with 786-0 renal stood at 25.9 µM; in the test with BT-549 breast, 27.3 µM; in the test with EKVX NSCLC, 25 µM; in the test with HCT-15 colon, 7.77 µM; in the test on HOP-62 NSCLC, 29.8 µM; in the test on MCF7 breast, 15.1 µM. Moreover, the TGI in the test with SF-295 CNS came to 12.1 µM; in the test on SK-OV-3 ovarian, 26.2 µM; in the test on SNB-19 CNS it was 30.5 µM; in the test with SR leukemia it was 4.93 µM.

Regarding `CCC(C)C(=O)OC1CCC=C2C=CC(C)C(CCC3CC(O)CC(=O)O3)C21` (stereo not drawn), the TGI in the test with 786-0 renal is above 65.9 µM; in the test on BT-549 breast, 73 µM; in the test on EKVX NSCLC it was above 100 µM; in the test with HCT-15 colon, above 100 µM; in the test on HOP-62 NSCLC it was above 100 µM; with MCF7 breast it was above 72.2 µM. The TGI with SF-295 CNS was above 100 µM; with SK-OV-3 ovarian it was above 100 µM; with SNB-19 CNS, above 100 µM; with SR leukemia, above 51 µM.

As to `O=C(O)c1cc(Cl)cc(Cc2cc(Cl)cc(C(=O)O)c2O)c1O`, the TGI in the test on 786-0 renal, in the test with BT-549 breast, in the test with EKVX NSCLC, in the test on HCT-15 colon, in the test with HOP-62 NSCLC and in the test on MCF7 breast was above 100 µM in each case. Also, the TGI in the test with SF-295 CNS, with SK-OV-3 ovarian, in the test with SNB-19 CNS and in the test with SR leukemia was above 100 µM each time.

As for `CCOC(=O)c1cc2c(n1Cc1cc(OC)cc(OC)c1)-c1oncc1CC2`, the GI50 is 0.499 µM in the test on 786-0 renal; 4.37 µM in the test with BT-549 breast; 0.32 µM in the test with EKVX NSCLC; 0.13 µM with HCT-15 colon; 0.327 µM with HOP-62 NSCLC; 0.0492 µM with MCF7 breast. Moreover, the GI50 with SF-295 CNS is 0.0518 µM; in the test on SK-OV-3 ovarian, 0.309 µM; in the test on SNB-19 CNS it was 0.544 µM; with SR leukemia, 0.0475 µM. For the same compound, the TGI in the test on 786-0 renal, in the test on BT-549 breast, in the test with EKVX NSCLC, with HCT-15 colon, in the test on HOP-62 NSCLC and in the test on MCF7 breast was above 100 µM throughout. For the same compound, the TGI in the test on SK-OV-3 ovarian is above 100 µM; in the test on SNB-19 CNS, above 100 µM; with SR leukemia, above 36.8 µM.

On to `CC(=O)c1ccc(Oc2c3ccccc3nc3occc23)cc1`, for which the GI50 in the test with 786-0 renal is 33.3 µM; in the test with BT-549 breast it was 47.3 µM; in the test with EKVX NSCLC, 73.3 µM; with HCT-15 colon it was 2.39 µM; in the test on HOP-62 NSCLC, above 100 µM; in the test on MCF7 breast, 4.08 µM. The GI50 in the test with SF-295 CNS was 2.02 µM; in the test on SK-OV-3 ovarian, 59 µM; in the test on SNB-19 CNS it was 7.98 µM; in the test with SR leukemia, 0.842 µM. Moreover, the TGI in the test with 786-0 renal is above 100 µM; in the test on BT-549 breast, above 100 µM; in the test on EKVX NSCLC, above 100 µM; with HCT-15 colon, 72.4 µM; with HOP-62 NSCLC, above 100 µM; in the test with MCF7 breast, above 100 µM. The TGI in the test with SF-295 CNS is 12.5 µM; in the test on SK-OV-3 ovarian, above 100 µM; in the test with SNB-19 CNS, above 100 µM; with SR leukemia, above 100 µM.

As for `CCCCC[C@H]1C/C=C2/C(=O)C(Cl)=C[C@@H]2C/C=C\CCCC(=O)O1`, the GI50 in the test with 786-0 renal was 0.47 µM; in the test on BT-549 breast it was 0.421 µM; with EKVX NSCLC, 0.56 µM; in the test with HCT-15 colon, 0.284 µM; with HOP-62 NSCLC, 0.53 µM; in the test with MCF7 breast it was 0.0886 µM. The GI50 in the test on SF-295 CNS was 0.563 µM; with SK-OV-3 ovarian, 0.907 µM; with SNB-19 CNS, 0.59 µM; in the test with SR leukemia, 0.122 µM. For the same compound, the TGI with 786-0 renal turned out to be 0.888 µM; in the test on BT-549 breast, 0.825 µM; in the test on EKVX NSCLC, 1.37 µM; with HCT-15 colon, 0.895 µM; with HOP-62 NSCLC, 1.15 µM; with MCF7 breast it was 2.7 µM. The TGI in the test on SF-295 CNS was 1.53 µM; in the test on SK-OV-3 ovarian, 2.68 µM; with SNB-19 CNS, 2.68 µM; in the test on SR leukemia, 2.68 µM.
